Measurements as given in the NIST ThermoML archive (doi:10.1016/j.fluid.2015.11.009).
Numbers after ± are expanded uncertainties.

Legend:
[1] = 298.15 K; 101.33 kPa; Liquid; Pycnometric method
[2] = refractive index (Na D-line) (dimensionless); settings: 298.15 K; 101.33 kPa; Liquid; Standard Abbe refractometry

mass density [1]	refractive index [2]	SMILES
957.8 ± 0.3 kg/m3	1.3789 ± 0.0004	COCOCOC [2,4,6-trioxaheptane]
805.2 ± 0.3 kg/m3	1.3967 ± 0.0004	CCCCO [butan-1-ol]
–	1.3325 ± 0.0004	O [water]
